# Measured values reported in ChEMBL document CHEMBL5465560, “Selectivity Literature for EUbOPEN Chemogenomic Library” (2024).
# Assays:
# [1] = target: T1, Alpha-1B adrenergic receptor (Homo sapiens) (UniProt P35368); assay: Selectivity interaction (GPCR panel (PDSP screen)) EUB0001066a ADRA1B; conditions: at 10 µM
# T1 sequence (whole entry): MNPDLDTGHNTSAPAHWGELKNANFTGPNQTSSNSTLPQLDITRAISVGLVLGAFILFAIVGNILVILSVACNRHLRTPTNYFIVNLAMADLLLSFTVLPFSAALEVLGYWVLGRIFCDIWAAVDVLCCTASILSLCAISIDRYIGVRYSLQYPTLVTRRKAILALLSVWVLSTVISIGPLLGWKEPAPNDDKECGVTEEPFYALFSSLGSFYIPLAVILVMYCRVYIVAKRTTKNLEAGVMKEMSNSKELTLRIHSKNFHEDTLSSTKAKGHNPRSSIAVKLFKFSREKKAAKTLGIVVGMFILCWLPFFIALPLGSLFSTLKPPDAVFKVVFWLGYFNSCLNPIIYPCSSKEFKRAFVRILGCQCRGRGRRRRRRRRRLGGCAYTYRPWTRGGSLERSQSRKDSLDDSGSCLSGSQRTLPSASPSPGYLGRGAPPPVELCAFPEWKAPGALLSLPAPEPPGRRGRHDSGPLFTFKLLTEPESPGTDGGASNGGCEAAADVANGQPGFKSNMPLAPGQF
# [2] = target: 5-hydroxytryptamine receptor 1E (Homo sapiens) (UniProt P28566); assay: Selectivity interaction (GPCR panel (PDSP screen)) EUB0001066a HTR1E; conditions: at 10 µM
# [3] = target: T2, 5-hydroxytryptamine receptor 2C (Homo sapiens) (UniProt P28335); assay: Selectivity interaction (GPCR panel (PDSP screen)) EUB0001066a HTR2C; conditions: at 10 µM
# T2 sequence (whole entry): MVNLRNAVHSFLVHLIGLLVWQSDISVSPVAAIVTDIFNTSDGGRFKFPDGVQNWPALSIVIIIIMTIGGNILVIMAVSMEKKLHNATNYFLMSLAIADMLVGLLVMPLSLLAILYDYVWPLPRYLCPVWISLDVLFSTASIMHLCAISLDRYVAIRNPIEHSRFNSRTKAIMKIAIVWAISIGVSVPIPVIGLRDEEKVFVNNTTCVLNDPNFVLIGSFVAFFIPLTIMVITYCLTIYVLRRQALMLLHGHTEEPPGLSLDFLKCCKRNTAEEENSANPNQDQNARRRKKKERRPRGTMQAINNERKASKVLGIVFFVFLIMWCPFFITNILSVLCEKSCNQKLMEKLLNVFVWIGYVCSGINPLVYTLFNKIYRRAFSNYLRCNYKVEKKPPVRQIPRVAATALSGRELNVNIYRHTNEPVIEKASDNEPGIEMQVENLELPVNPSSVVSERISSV
# [4] = tested on: Mast/stem cell growth factor receptor Kit (Homo sapiens), P10721 [UNDEFINED MUTATION]; assay: Selectivity interaction (KinomeScan (DiscoverX)) EUB0001066a KIT; conditions: at 1 µM
# [5] = target: T3, Serine/threonine-protein kinase NLK (Homo sapiens) (UniProt Q9UBE8); assay: Selectivity interaction (KinomeScan (DiscoverX)) EUB0001066a NLK; conditions: at 1 µM
# T3 sequence (whole entry): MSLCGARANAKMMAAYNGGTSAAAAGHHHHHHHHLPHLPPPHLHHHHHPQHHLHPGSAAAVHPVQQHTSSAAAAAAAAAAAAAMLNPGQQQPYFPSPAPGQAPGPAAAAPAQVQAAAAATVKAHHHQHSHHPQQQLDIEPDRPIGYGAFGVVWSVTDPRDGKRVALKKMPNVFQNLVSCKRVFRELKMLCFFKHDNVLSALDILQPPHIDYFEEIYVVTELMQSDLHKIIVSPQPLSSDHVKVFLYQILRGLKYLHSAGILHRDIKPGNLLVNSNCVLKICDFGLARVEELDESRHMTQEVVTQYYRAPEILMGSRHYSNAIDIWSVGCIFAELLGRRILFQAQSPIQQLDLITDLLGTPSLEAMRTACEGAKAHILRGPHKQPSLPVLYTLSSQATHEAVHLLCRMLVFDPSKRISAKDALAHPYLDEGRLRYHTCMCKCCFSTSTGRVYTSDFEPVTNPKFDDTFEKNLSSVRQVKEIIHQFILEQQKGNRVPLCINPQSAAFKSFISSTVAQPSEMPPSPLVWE
# [6] = target: Serine/threonine-protein kinase pim-2 (Homo sapiens, UniProt Q9P1W9); assay: Selectivity interaction (KinomeScan (DiscoverX)) EUB0001066a PIM2; conditions: at 1 µM
# [7] = target: Serine/threonine-protein kinase VRK2 (Homo sapiens) (UniProt Q86Y07); assay: Selectivity interaction (KinomeScan (DiscoverX)) EUB0001066a VRK2; conditions: at 1 µM
# [8] = target: T4, Muscarinic acetylcholine receptor M1 (Homo sapiens) (UniProt P11229); assay: Selectivity interaction (Eurofins Cerep-Panlabs Safety Screen 44 (GPCRS, Transporters, Ion Channels, Nuclear Receptors, other enzymes)) EUB0000878a CHRM1; conditions: at 10 µM
# T4 sequence (whole entry): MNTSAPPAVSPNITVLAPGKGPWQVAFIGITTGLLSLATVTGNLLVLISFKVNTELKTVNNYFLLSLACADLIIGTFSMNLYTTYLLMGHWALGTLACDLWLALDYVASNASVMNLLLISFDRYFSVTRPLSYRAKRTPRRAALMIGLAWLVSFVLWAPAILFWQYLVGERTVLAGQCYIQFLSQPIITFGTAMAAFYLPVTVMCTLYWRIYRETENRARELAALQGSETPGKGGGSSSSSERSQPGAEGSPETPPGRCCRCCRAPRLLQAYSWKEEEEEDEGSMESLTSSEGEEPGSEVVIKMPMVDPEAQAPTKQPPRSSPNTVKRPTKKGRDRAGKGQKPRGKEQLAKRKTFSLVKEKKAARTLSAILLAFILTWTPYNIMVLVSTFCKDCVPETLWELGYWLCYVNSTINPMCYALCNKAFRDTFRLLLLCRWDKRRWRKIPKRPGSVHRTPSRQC
# [9] = target: T5, Muscarinic acetylcholine receptor M2 (Homo sapiens) (UniProt P08172); assay: Selectivity interaction (Eurofins Cerep-Panlabs Safety Screen 44 (GPCRS, Transporters, Ion Channels, Nuclear Receptors, other enzymes)) EUB0000878a CHRM2; conditions: at 10 µM
# T5 sequence (whole entry): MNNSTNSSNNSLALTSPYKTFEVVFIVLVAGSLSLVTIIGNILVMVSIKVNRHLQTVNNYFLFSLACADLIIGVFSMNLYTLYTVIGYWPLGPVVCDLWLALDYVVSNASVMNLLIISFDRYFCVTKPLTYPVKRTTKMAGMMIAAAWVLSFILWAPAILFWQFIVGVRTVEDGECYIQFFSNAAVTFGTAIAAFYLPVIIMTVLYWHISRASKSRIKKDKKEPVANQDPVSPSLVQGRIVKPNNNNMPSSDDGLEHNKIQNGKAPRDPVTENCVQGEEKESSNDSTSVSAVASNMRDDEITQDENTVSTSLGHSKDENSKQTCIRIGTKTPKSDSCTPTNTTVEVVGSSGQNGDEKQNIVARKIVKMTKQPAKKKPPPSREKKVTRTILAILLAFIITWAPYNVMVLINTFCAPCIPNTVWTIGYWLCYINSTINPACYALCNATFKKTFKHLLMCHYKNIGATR
# [10] = target: Muscarinic acetylcholine receptor M3 (Homo sapiens, UniProt P20309); assay: Selectivity interaction (Eurofins Cerep-Panlabs Safety Screen 44 (GPCRS, Transporters, Ion Channels, Nuclear Receptors, other enzymes)) EUB0000878a CHRM3; conditions: at 10 µM
# [11] = target: T6, Dual specificity mitogen-activated protein kinase kinase 5 (Homo sapiens) (UniProt Q13163); assay: Selectivity interaction (KinomeScan (DiscoverX)) EUB0000878a MAP2K5; conditions: at 1 µM
# T6 sequence (whole entry): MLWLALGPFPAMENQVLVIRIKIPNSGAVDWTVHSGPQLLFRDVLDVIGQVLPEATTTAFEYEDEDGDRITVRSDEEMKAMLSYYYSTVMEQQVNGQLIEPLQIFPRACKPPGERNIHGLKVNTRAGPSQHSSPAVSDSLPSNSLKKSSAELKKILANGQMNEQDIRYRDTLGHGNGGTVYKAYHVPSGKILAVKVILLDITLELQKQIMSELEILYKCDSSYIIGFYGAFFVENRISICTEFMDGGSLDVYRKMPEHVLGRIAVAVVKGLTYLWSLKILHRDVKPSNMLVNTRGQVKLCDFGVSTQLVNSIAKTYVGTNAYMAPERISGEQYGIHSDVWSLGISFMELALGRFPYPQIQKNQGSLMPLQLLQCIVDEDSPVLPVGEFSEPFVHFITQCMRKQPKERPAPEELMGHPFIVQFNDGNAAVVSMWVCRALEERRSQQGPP
# [12] = target: Mitogen-activated protein kinase kinase kinase 11 (Homo sapiens) (UniProt Q16584); assay: Selectivity interaction (KinomeScan (DiscoverX)) EUB0000878a MAP3K11; conditions: at 1 µM
# [13] = target: Phosphatidylinositol 4-phosphate 5-kinase type-1 gamma (Homo sapiens) (UniProt O60331); assay: Selectivity interaction (KinomeScan (DiscoverX)) EUB0000878a PIP5K1C; conditions: at 1 µM
# [14] = target: T7, Receptor-interacting serine/threonine-protein kinase 4 (Homo sapiens) (UniProt P57078); assay: Selectivity interaction (KinomeScan (DiscoverX)) EUB0000878a RIPK4; conditions: at 1 µM
# T7 sequence (whole entry): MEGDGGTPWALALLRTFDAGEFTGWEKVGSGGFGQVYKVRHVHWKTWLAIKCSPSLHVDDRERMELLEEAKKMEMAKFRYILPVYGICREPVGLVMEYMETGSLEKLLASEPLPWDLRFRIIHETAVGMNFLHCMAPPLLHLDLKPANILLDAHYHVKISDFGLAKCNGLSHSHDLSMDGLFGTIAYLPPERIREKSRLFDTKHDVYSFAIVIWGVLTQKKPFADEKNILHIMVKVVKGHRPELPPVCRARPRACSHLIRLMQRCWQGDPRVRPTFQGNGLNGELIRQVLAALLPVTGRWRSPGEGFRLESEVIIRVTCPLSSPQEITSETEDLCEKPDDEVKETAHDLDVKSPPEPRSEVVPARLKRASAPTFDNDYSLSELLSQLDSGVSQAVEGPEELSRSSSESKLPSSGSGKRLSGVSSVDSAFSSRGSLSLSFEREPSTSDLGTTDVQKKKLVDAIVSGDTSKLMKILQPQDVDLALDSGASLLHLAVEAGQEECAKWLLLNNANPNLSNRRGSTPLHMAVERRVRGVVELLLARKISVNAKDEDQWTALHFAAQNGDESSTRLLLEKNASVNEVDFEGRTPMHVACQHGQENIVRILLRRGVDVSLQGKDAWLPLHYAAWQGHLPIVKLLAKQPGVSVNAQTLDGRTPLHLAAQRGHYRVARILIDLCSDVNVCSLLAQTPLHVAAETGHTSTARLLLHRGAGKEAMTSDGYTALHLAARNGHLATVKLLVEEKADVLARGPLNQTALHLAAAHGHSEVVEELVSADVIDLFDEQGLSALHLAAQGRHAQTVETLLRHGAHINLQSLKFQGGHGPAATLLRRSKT
# [15] = target: Sodium-dependent noradrenaline transporter (Homo sapiens, UniProt P23975); assay: Selectivity interaction (Eurofins Cerep-Panlabs Safety Screen 44 (GPCRS, Transporters, Ion Channels, Nuclear Receptors, other enzymes)) EUB0000878a SLC6A2; conditions: at 10 µM
# [16] = target: Sodium-dependent dopamine transporter (Homo sapiens, UniProt Q01959); assay: Selectivity interaction (Eurofins Cerep-Panlabs Safety Screen 44 (GPCRS, Transporters, Ion Channels, Nuclear Receptors, other enzymes)) EUB0000878a SLC6A3; conditions: at 10 µM
# Sodium-dependent dopamine transporter, sequence (Q01959 whole entry): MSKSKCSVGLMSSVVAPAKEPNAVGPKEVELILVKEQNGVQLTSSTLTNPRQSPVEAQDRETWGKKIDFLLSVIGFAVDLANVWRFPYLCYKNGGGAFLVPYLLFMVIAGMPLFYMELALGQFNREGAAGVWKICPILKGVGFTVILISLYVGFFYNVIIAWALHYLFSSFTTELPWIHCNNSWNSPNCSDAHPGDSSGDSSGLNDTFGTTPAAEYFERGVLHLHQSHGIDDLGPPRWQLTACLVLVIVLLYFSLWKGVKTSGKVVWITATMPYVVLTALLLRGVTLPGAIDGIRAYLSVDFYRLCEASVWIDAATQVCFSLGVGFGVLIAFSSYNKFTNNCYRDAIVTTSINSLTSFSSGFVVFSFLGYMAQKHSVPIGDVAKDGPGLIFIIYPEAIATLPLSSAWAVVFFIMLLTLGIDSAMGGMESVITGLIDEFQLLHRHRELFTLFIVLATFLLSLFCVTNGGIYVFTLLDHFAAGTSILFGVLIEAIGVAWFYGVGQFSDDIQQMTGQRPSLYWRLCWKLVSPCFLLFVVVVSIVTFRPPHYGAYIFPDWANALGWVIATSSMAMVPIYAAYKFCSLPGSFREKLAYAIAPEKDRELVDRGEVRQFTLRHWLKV
# 5-hydroxytryptamine receptor 1E (Homo sapiens), sequence (P28566 whole entry): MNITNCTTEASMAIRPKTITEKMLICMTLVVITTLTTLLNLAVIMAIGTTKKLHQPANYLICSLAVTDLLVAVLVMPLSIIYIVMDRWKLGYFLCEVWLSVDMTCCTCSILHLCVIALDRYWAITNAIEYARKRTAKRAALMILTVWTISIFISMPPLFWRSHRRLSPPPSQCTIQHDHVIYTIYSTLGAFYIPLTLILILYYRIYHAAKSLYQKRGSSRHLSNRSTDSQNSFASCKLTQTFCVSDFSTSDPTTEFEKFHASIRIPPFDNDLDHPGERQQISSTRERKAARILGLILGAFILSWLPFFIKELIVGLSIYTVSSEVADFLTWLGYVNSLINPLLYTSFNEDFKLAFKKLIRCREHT
# Muscarinic acetylcholine receptor M3, sequence (P20309 whole entry, looked up): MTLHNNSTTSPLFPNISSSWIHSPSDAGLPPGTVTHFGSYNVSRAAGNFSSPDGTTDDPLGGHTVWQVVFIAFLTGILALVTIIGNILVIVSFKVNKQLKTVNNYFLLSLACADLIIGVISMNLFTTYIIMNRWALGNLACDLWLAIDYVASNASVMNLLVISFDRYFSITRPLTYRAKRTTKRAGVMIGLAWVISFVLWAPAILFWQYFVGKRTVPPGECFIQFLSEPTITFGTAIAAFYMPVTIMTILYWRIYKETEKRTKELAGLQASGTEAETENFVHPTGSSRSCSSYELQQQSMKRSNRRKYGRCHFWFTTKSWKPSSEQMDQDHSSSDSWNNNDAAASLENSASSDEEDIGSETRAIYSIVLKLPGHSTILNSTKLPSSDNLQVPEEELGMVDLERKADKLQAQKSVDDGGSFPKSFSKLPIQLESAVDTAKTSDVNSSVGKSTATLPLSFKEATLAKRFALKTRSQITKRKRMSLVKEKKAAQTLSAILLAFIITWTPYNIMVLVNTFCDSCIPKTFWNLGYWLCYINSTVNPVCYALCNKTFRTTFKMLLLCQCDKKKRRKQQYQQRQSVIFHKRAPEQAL
# Serine/threonine-protein kinase VRK2 (Homo sapiens), sequence (Q86Y07 whole entry): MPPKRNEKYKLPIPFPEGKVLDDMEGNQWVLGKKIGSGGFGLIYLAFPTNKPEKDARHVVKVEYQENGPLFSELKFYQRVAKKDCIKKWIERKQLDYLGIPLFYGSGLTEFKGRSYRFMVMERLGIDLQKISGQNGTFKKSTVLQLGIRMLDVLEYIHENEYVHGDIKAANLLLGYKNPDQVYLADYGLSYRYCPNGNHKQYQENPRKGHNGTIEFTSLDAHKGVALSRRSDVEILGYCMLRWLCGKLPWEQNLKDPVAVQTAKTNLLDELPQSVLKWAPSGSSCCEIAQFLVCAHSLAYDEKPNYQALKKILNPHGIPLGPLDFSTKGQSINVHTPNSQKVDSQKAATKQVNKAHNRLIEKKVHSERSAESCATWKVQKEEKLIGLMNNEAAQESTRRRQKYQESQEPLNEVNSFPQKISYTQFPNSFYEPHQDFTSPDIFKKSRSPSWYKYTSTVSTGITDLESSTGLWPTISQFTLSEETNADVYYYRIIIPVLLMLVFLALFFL
# Mast/stem cell growth factor receptor Kit (Homo sapiens), P10721 [UNDEFINED MUTATION], sequence (P10721 whole entry, looked up, change not shown): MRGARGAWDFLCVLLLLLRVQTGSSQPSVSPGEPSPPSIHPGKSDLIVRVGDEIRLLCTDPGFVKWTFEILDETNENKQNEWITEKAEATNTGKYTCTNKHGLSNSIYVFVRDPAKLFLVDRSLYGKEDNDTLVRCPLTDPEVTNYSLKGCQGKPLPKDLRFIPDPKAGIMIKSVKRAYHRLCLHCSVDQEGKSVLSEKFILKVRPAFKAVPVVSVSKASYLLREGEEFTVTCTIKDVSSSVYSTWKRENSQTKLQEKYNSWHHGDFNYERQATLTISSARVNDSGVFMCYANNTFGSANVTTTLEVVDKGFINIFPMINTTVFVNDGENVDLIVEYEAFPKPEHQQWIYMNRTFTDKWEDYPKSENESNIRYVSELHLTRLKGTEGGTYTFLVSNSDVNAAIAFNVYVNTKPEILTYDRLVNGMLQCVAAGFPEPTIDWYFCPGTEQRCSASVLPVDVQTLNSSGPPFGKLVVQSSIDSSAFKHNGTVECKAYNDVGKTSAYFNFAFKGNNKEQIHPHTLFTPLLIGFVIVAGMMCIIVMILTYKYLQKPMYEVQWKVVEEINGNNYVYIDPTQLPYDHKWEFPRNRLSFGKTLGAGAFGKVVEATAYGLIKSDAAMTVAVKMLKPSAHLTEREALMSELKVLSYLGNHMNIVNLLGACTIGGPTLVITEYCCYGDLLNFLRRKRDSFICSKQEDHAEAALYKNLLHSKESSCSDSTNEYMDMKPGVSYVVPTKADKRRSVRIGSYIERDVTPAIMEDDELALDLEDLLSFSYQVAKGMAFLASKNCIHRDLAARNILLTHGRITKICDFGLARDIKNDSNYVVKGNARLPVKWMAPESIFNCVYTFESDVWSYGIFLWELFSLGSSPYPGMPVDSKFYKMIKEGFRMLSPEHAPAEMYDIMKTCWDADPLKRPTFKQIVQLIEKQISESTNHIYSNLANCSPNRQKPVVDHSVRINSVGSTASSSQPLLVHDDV
# Sodium-dependent noradrenaline transporter, sequence (P23975 whole entry): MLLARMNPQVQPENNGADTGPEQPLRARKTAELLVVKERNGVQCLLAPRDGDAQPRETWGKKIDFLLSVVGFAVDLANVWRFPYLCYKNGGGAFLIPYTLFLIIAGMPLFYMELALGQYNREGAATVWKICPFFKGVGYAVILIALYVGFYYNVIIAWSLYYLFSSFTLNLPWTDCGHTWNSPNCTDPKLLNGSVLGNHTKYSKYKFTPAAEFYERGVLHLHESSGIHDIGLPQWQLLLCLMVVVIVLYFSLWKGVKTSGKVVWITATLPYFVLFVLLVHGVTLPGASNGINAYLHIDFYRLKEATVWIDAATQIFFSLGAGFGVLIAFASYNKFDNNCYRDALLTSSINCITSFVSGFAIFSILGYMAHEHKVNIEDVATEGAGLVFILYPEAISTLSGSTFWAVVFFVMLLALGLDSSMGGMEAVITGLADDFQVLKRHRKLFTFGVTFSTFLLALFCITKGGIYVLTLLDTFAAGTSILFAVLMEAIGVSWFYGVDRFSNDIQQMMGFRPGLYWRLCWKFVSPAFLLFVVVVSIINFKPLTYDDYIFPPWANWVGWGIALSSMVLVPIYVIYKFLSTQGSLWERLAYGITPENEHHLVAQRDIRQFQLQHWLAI
# Mitogen-activated protein kinase kinase kinase 11 (Homo sapiens), sequence (Q16584 whole entry, looked up): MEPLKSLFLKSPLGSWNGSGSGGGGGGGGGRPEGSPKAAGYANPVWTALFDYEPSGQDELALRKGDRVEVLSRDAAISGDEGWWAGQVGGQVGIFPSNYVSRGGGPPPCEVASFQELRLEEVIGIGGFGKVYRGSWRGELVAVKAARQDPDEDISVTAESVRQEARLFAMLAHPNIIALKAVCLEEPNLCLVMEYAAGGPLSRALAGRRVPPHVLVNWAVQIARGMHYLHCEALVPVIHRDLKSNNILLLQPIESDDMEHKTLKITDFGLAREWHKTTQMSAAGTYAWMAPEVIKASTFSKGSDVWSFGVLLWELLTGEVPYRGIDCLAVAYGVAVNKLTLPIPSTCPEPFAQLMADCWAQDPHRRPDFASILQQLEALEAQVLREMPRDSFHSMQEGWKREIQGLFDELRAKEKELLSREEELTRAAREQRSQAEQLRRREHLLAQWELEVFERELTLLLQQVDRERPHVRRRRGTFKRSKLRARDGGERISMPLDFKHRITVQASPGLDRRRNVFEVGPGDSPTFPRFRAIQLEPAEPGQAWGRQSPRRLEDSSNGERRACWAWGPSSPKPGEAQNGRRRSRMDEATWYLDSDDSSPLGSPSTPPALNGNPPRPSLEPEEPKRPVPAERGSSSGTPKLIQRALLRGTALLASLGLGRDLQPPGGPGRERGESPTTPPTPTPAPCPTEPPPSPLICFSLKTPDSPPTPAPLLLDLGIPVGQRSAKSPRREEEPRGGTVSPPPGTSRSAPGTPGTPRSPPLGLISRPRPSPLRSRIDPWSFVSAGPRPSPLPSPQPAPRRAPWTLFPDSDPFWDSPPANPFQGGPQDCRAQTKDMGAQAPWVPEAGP
# Serine/threonine-protein kinase pim-2, sequence (Q9P1W9 whole entry, looked up): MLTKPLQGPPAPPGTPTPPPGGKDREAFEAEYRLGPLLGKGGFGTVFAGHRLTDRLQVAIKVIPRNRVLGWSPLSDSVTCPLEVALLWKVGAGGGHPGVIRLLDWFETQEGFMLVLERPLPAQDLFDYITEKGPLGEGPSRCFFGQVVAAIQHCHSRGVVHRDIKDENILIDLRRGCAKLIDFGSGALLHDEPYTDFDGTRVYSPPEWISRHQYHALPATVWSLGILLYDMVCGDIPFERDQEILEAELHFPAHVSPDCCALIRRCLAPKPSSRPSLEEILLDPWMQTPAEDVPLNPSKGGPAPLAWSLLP
% of inhibition [1],% of inhibition [2],% of inhibition [3],% of control [4],% of control [5],% of control [6],% of control [7],% of control [11],% of control [12],% of control [13],% of control [14],Compound,% of inhibition or stimulation [8],% of inhibition or stimulation [9],% of inhibition or stimulation [10],% of inhibition or stimulation [15],% of inhibition or stimulation [16]
30.2%,31.8%,31.1%,41%,41%,0%,29%,–,–,–,–,Cc1nccc(COC(=O)N2C[C@@H]3[C@@H](CNC(=O)c4ccc5[nH]nnc5c4)[C@@H]3C2)n1,–,–,–,–,–
–,–,–,–,–,–,–,4.5%,99%,0%,0.95%,CC(C)c1cc(Nc2nc(N3CCC[C@H](N)C3)ncc2C(N)=O)cc(C(C)C)n1,84%,70%,84%,87%,100%
